Reference: patent US10233179B2, “Thiazoles and uses thereof” (AbbVie Inc., priority 2013, dated 2019)

Tests used:
[1] = tested on: RSV (Group A, Long Strain); assay: Antiviral cytopathic effect (CPE) protection assay, MTT readout; format: cell-based; conditions: human respiratory syncytial virus, 96 h; HEp-2 cells, 0.2 MOI RSV, 4 days incubation, protection from CPE by MTT
Description: HEp-2 cells and RSV (Group A, Long Strain) were obtained from the American Type Culture Collection (Manassas, Va.).
A cytopathic effect (CPE) protection assay was performed to determine the ability of a compound to protect the cells from viral infection and thus the CPE induced by viral infection. 96-Well plates were first seeded with 3×10^3 HEp-2 cells per well in Dulbecco's modified Eagle's medium (DMEM) containing 10% fetal bovine serum (FBS). One day after the cells were seeded, they were preincubated with serial dilutions of compounds prepared in 100 μL assay medium (DMEM mixed with F12 medium at a 1:1 ratio, supplemented with 2% FBS and 1 mM sodium pyruvate) for 1 hour at 37° C. 100 μL of assay medium containing 0.2 multiplicity of infection (MOI) of RSV was then added to each well of cells. In addition to wells containing infected cells incubated with compounds, each plate also contained replicates of two kinds of controls: (1) Virus control contained cells infected with 0.2 MOI of RSV in assay medium, (2) Uninfected cell control contained cells incubated with assay medium only. After 4 days of incubation at 37° C., the viability of cells was assessed using MTT (Thiazolyl blue tetrazolium bromide, Sigma). A stock solution of MTT, at a concentration of 4 mg/mL in phosphate-buffered saline, was added to all wells at 25 μL per well. Plates were further incubated for 4 hours, and each well was then treated with 50 μL of a solution containing 20% sodium dodecyl sulfate (SDS) and 0.02 N HCl. After an overnight incubation, the plates were measured on a BioTek® microtiter plate reader at wavelengths of 570 nm and 650 nm. The MTT detection is based on the fact that viable (uninfected) cells can reduce the tetrazolium salts into colored formazan products, which can then be quantitated by spectrometry. Based on the spectrometric absorbance of each sample, the percent of protection from CPE, which is an indicator of protection from viral infection, can be calculated for each compound and the 50% effective concentrations (EC50) can be calculated using a nonlinear regression curve fitting equation provided by the GraphPad Prism® 4 software.
Compounds were tested to determine both their antiviral and toxicity to determine their therapeutic window. Determination of the EC50 and TD50 of these active compounds were repeated one additional time to confirm the window.

HEp-2 cells = assay: Cytotoxicity assay (MTT) in parallel with the antiviral assay; format: cell-based
Description: HEp-2 cells and RSV (Group A, Long Strain) were obtained from the American Type Culture Collection (Manassas, Va.). Cytotoxicity of the compounds was determined in experiments done in parallel with the antiviral assays. To do this, 100 μL of assay medium was added to the wells of HEp-2 cells pretreated with 100 μL serially diluted compounds as described above. After 4 days of incubation, the viability of the cells was determined by the MTT assay in the same way as detailed in the “Antiviral Assay” method. Results were expressed as 50% toxicity dose (TD50) values. Compounds were tested to determine both their antiviral and toxicity to determine their therapeutic window. Determination of the EC50 and TD50 of these active compounds were repeated one additional time to confirm the window.

[2] = uninfected HEp-2 cells, 4 days incubation, MTT viability

Row | Structure (SMILES) | EC50 [1] | MTT TD50 (HEp-2 cells; [2]) | MTT TD50 (HEp-2 cells; human, 4 days)
1 | Clc1ccc(CN(Cc2cccn2-c2nncs2)Cc2cccn2-c2nncs2)c(Cl)c1 [Example 42, 1-(2,4-dichlorophenyl)-N,N-bis{[1-(1,3,4-thiadiazol-2-yl)-1H-pyrrol-2-yl]methyl}methanamine] | > 32000 nM | 32 µM | 
2 | C[C@H](c1ccc(F)cc1)N(Cc1cccn1-c1nccs1)Cc1cccn1-c1nccs1 [Example 62, (1R)-1-(4-fluorophenyl)-N,N-bis{[1-(1,3-thiazol-2-yl)-1H-pyrrol-2-yl]methyl}ethanamine] | > 3000 nM | 3.0 µM | 
3 | Cc1cc(N(Cc2cccn2-c2nccs2)Cc2cccn2-c2nccs2)n(-c2ccccc2)n1 [Example 35, 3-methyl-1-phenyl-N,N-bis{[1-(1,3-thiazol-2-yl)-1H-pyrrol-2-yl]methyl}-1H-pyrazol-5-amine] | 47 nM | >32 µM | 
4 | FC1(F)CCC(CN(Cc2cccn2-c2nncs2)Cc2cccn2-c2nncs2)CC1 [Example 23, 1-(4,4-difluorocyclohexyl)-N,N-bis{[1-(1,3,4-thiadiazol-2-yl)-1H-pyrrol-2-yl]methyl}methanamine] | 2400 nM | >100 µM | 
5 | Clc1cnc(CN(Cc2cccn2-c2nncs2)Cc2cccn2-c2nncs2)c(Cl)c1 [Example 14, 1-(3,5-dichloropyridin-2-yl)-N,N-bis{[1-(1,3,4-thiadiazol-2-yl)-1H-pyrrol-2-yl]methyl}methanamine] | 4800 nM | 90 µM | 
6 | c1ccc(CN(Cc2cccn2-c2nccs2)Cc2cccn2-c2nccs2)cc1 [Example 31, 1-phenyl-N,N-bis{[1-(1,3-thiazol-2-yl)-1H-pyrrol-2-yl]methyl}methanamine] | 110 nM | 5.4 µM | 
7 | COc1ccc(CN(Cc2cccn2-c2nccs2)Cc2cccn2-c2nccs2)c(OC)c1 [Example 30, 1-(2,4-dimethoxyphenyl)-N,N-bis{[1-(1,3-thiazol-2-yl)-1H-pyrrol-2-yl]methyl}methanamine] | 54 nM | 4.9 µM | 
8 | N#Cc1cc(CN(Cc2cccn2-c2nncs2)Cc2cccn2-c2nncs2)cs1 [Example 28, 4-[(bis{[1-(1,3,4-thiadiazol-2-yl)-1H-pyrrol-2-yl]methyl}amino)methyl]thiophene-2-carbonitrile] | 760 nM | >100 µM | 
9 | Cc1c([C@@H](C)N(Cc2cccn2-c2nccs2)Cc2cccn2-c2nccs2)cnn1-c1cccc(F)c1 [Example 3, (1R)-1-[1-(3-fluorophenyl)-5-methyl-1H-pyrazol-4-yl]-N,N-bis{[1-(1,3-thiazol-2-yl)-1H-pyrrol-2-yl]methyl}ethanamine] | 960 nM | >32 µM | 
10 | COc1ccccc1CN(Cc1cccn1-c1nccs1)C(C)c1cnn(-c2cccc(F)c2)c1C (stereo not drawn) [Example 4, 1-[1-(3-fluorophenyl)-5-methyl-1H-pyrazol-4-yl]-N-(2-methoxybenzyl)-N-{[1-(1,3-thiazol-2-yl)-1H-pyrrol-2-yl]methyl}ethanamine] | > 480 nM | 0.48 µM | 
11 | c1ccc(C2(CCN(Cc3cccn3-c3nccs3)Cc3cccn3-c3nccs3)CC2)nc1 [Example 51, 2-[1-(pyridin-2-yl)cyclopropyl]-N,N-bis{[1-(1,3-thiazol-2-yl)-1H-pyrrol-2-yl]methyl}ethanamine] | 45 nM |  | 6.2 µM
12 | c1cc(CN(Cc2cccn2-c2nncs2)C[C@H]2CCOC2)n(-c2nncs2)c1 [Example 61, 1-[(3R)-tetrahydrofuran-3-yl]-N,N-bis{[1-(1,3,4-thiadiazol-2-yl)-1H-pyrrol-2-yl]methyl}methanamine] | > 100000 nM | >100 µM | 
13 | C[C@H](c1ccc(F)cc1)N(Cc1cccn1-c1nncs1)Cc1cccn1-c1nncs1 [Example 13, (1R)-1-(4-fluorophenyl)-N,N-bis{[1-(1,3,4-thiadiazol-2-yl)-1H-pyrrol-2-yl]methyl}ethanamine] | 14000 nM | 93 µM | 
14 | Cc1c(C(C)N(Cc2ncc(-c3ccccc3)n2C)Cc2ncc(-c3ccccc3)n2C)cnn1-c1cccc(F)c1 (stereo not drawn) [Example 7, 1-[1-(3-fluorophenyl)-5-methyl-1H-pyrazol-4-yl]-N,N-bis[(1-methyl-5-phenyl-1H-imidazol-2-yl)methyl]ethanamine] | 320 nM | 5.2 µM | 
15 | Clc1ccccc1CN(Cc1cccn1-c1nncs1)Cc1cccn1-c1nncs1 [Example 18, 1-(2-chlorophenyl)-N,N-bis{[1-(1,3,4-thiadiazol-2-yl)-1H-pyrrol-2-yl]methyl}methanamine] | 62 nM | >32 µM | 
16 | Clc1ccc(CN(Cc2cccn2-c2nccs2)Cc2cccn2-c2nccs2)c(Cl)c1 [Example 29, 1-(2,4-dichlorophenyl)-N,N-bis{[1-(1,3-thiazol-2-yl)-1H-pyrrol-2-yl]methyl}methanamine] | 320 nM | >32 µM | 
17 | C[C@H](c1ccccc1Cl)N(Cc1cccn1-c1nccs1)Cc1cccn1-c1nccs1 [Example 48, (1R)-1-(2-chlorophenyl)-N,N-bis{[1-(1,3-thiazol-2-yl)-1H-pyrrol-2-yl]methyl}ethanamine] | 110 nM | 6.7 µM | 
18 | Cc1c([C@H](C)N(Cc2cccn2-c2nccs2)Cc2cccn2-c2nccs2)cnn1-c1cccc(F)c1 [Example 2, (1S)-1-[1-(3-fluorophenyl)-5-methyl-1H-pyrazol-4-yl]-N,N-bis{[1-(1,3-thiazol-2-yl)-1H-pyrrol-2-yl]methyl}ethanamine] | 71 nM | >32 µM | 
19 | FC1(F)CCC(CN(Cc2cccn2-c2nccs2)Cc2cccn2-c2nccs2)CC1 [Example 57, 1-(4,4-difluorocyclohexyl)-N,N-bis{[1-(1,3-thiazol-2-yl)-1H-pyrrol-2-yl]methyl}methanamine] | 310 nM | 20 µM | 
20 | Fc1ccccc1CN(Cc1cccn1-c1nccs1)Cc1cccn1-c1nccs1 [Example 40, 1-(2-fluorophenyl)-N,N-bis{[1-(1,3-thiazol-2-yl)-1H-pyrrol-2-yl]methyl}methanamine] | 18 nM | 6.3 µM | 
21 | c1cncc(C2(CN(Cc3cccn3-c3nccs3)Cc3cccn3-c3nccs3)CC2)c1 [Example 65, 1-[1-(pyridin-3-yl)cyclopropyl]-N,N-bis{[1-(1,3-thiazol-2-yl)-1H-pyrrol-2-yl]methyl}methanamine] | 90 nM | 25 µM | 
22 | c1ccc(N(Cc2cccn2-c2nncs2)Cc2cccn2-c2nncs2)cc1 [Example 22, N,N-bis{[1-(1,3,4-thiadiazol-2-yl)-1H-pyrrol-2-yl]methyl}aniline] | 28000 nM | >32 µM | 
23 | C[C@@H](c1ccccc1Cl)N(Cc1cccn1-c1nncs1)Cc1cccn1-c1nncs1 [Example 20, (1S)-1-(2-chlorophenyl)-N,N-bis{[1-(1,3,4-thiadiazol-2-yl)-1H-pyrrol-2-yl]methyl}ethanamine] | 360 nM | >32 µM | 
24 | Clc1ccccc1CN(Cc1cccn1-c1nccs1)Cc1cccn1-c1nccs1 [Example 47, 1-(2-chlorophenyl)-N,N-bis{[1-(1,3-thiazol-2-yl)-1H-pyrrol-2-yl]methyl}methanamine] | 15 nM | 7.0 µM | 
25 | Cc1cc(N(Cc2cccn2-c2nncs2)Cc2cccn2-c2nncs2)n(-c2ccc(F)cc2)n1 [Example 43, 1-(4-fluorophenyl)-3-methyl-N,N-bis{[1-(1,3,4-thiadiazol-2-yl)-1H-pyrrol-2-yl]methyl}-1H-pyrazol-5-amine] | > 32000 nM | >32 µM | 
26 | CC(c1ccc(Cl)c(Cl)c1)N(Cc1cccn1-c1nncs1)Cc1cccn1-c1nncs1 (stereo not drawn) [Example 17, 1-(3,4-dichlorophenyl)-N,N-bis{[1-(1,3,4-thiadiazol-2-yl)-1H-pyrrol-2-yl]methyl}ethanamine] | 15000 nM | >32 µM | 
27 | Cc1c(C(C)N(Cc2cccn2-c2nccs2)Cc2cccn2-c2nccs2)cnn1-c1cccc(F)c1 (racemic) [Example 1, 1-[1-(3-fluorophenyl)-5-methyl-1H-pyrazol-4-yl]-N,N-bis{[1-(1,3-thiazol-2-yl)-1H-pyrrol-2-yl]methyl}ethanamine] | 120 nM | 11 µM | 
